Data published in the SangsterLogP compilation.

assay: method code SF, from DOI: 10.1016/j.ejps.2012.10.019, PMID: 23131797; conditions: pH 2.0

SMILES	logD
O=C(OCc1c(F)cccc1Cl)c1cccc(S(=O)(=O)N2CCCC2)c1	4.22

same assay, conditions: pH 5.0

SMILES	logD
O=C(c1ccc(F)cc1)C1CC1	2.61
COc1ccccc1Nc1nc(OCC(F)(F)F)nc(OCC(F)(F)F)n1	5.27
CC(C)NC(=S)N1CCN(S(=O)(=O)c2cccc(C(F)(F)F)c2)CC1	3.9
CCOC(=O)CSc1nnnn1-c1cccc2ccccc12	3.8
COc1ccc(S(=O)(=O)n2c(=O)n(S(=O)(=O)c3ccc(OC)cc3)c3ccccc32)cc1	5.22
CCCN(CC1CC1)C(=S)Nc1cc([N+](=O)[O-])ccc1Cl	4.1
CC(=O)NCCc1ccc(S(=O)(=O)N2CCOCC2)cc1	2
C#CCOc1c(I)cc(C=C2C(=O)N(C)C(=S)N(C)C2=O)cc1OCC	3.72
COc1ccc(C(=O)CSc2nnc(-c3ccccc3)o2)cc1	4.15
c1ccc2c(c1)OCCOCCOCCO2	1.81
COC(=O)C1=C(C)NC(C)=C(C(=O)OC)C1c1cn(-c2ccccc2)nc1-c1cccc([N+](=O)[O-])c1	5.04
Cc1cc(=O)oc2cc(OC(C)C)ccc12	3.33
CCOC(=O)c1[nH]c2c(c1C)C(Cl)=C(C=O)CC2	3.92
CCC(CC)NC(=O)c1ccc(Cl)c(S(=O)(=O)N2CCCC2)c1	3.6

same assay, conditions: pH 6.5

SMILES	logD
N#CC1=C(N)Oc2c(oc(CO)cc2=O)C1c1ccccc1OCc1ccccc1Cl (configuration not stated)	4.34

same assay, conditions: pH 7.0

SMILES	logD
Cc1ccc(C(=O)N2C(=O)c3cccc(N)c3C2=O)cc1NC(=O)c1ccco1	3.55

same assay, conditions: pH 7.3

SMILES	logD
Cc1cc2ccccc2c(=O)n1CC(=O)NCC(=O)N1CCN(c2cccc(Cl)c2)CC1	4.45
COC(=O)c1sc(N)nc1C	1.48
O=C(Nc1cc2c(n(CCNc3ncc(C(F)(F)F)cc3Cl)c1=O)CCCC2=O)c1ccc(Cl)cc1	5.83
COc1ccccc1NC(=O)C1=C(C)Nc2nc(SCc3ccccc3F)nn2C1c1ccncc1 (configuration not stated)	4.66
CCOC(=O)C1CCN(S(=O)(=O)c2nc3nc(C)cc(C)n3n2)CC1	2.71
O=C(c1nn(-c2ccccc2)c(=O)c2ccccc12)N1CCOCC1	2.47
CCc1ccccc1Nc1nc(N)nc(CSc2nnc(-c3ccc(OC(F)F)cc3)n2N)n1	4.35
n1onc2c1NC1Nc3nonc3NC1N2 (configuration not stated)	0.3
Cn1c(C(=O)N2CCC3(CC2)OCCO3)cc2c(=O)n3ccccc3nc21	2.87

same assay, conditions: pH 10.0

SMILES	logD
CN(C)S(=O)(=O)c1cccc(C(=O)NCCc2ccc(Cl)cc2Cl)c1	4.48

same assay, conditions: pH 10.5

SMILES	logD
CCCNC(=O)N1CCN(C(=O)NCCC)CC1	1.04
Cc1c(C(=O)N2CCN(S(=O)(=O)c3ccccc3)CC2)sc2nc3n(c(=O)c12)CCCCC3	4.13
Cc1nnc2c(=O)n(CCNc3ncc(C(F)(F)F)cc3Cl)c3ccc(Cl)cc3n12	4.57
COc1ccc(-c2nnc(SCC(=O)c3c(N)n(C)c(=O)n(C)c3=O)n2-c2cccc(C(F)(F)F)c2)cc1	4.89
Cn1c(N)c(C(=O)CSc2nc3ccccc3nc2SCC(=O)c2c(N)n(C)c(=O)n(C)c2=O)c(=O)n(C)c1=O	2.59
